Assay results from patent US8575364B2, “Modulators of serotonin receptor” (Janssen Pharmaceutica NV, priority 2008, dated 2013).
Counter-ions that a name gives are not always drawn.

Molecular target: rat 5-HT7 receptors (Rattus norvegicus (Rat), UniProt P32305)
Assay: r5-HT7 competitive radioligand binding assay ([3H]5-CT)
Details: membrane fractions of HEK-293 cells recombinantly expressing rat 5-HT7
Method: Compound affinity for the rat 5-HT7 receptor subtype was evaluated by competitive radioligand binding assays using 5-carboxamido[^3H]tryptamine ([^3H]5-CT) (Amersham Biosciences, cat. 90000403) detection. HitHunter™ cAMP assays are in-vitro based competitive immunoassays. […] Cells were pre-incubated with test compounds for 10 minutes. For agonistic testing, the concentration of test compound that produced a half-maximal response is represented by the EC50 value. Compounds were assayed in their free form or as salts, as indicated in the Examples section above.

Sequence of rat 5-HT7 receptors (P32305 1-435): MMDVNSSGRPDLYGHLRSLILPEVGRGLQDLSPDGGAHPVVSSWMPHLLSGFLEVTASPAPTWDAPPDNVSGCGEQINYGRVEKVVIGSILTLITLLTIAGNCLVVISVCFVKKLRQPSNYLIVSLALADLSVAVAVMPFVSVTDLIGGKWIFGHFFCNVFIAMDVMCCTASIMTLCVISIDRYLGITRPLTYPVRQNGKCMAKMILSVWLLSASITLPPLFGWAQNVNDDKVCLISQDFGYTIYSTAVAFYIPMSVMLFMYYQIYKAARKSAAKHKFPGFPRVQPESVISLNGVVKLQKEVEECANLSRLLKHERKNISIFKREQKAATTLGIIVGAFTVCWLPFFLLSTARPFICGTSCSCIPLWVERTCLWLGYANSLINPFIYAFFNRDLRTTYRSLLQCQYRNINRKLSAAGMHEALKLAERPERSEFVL

SMILES	Ki [nM]
COc1ccc(-c2ccccc2C#N)cc1OC1CNC1 [Example 3, 3′-(Azetidin-3-yloxy)-4′-methoxy-biphenyl-2-carbonitrile trifluoroacetate]	33.9
N#Cc1ccc(-c2ccccc2)cc1OC1CNC1 [Example 29, 3-(Azetidin-3-yloxy)-biphenyl-4-carbonitrile]	10000
Cc1ccccc1-c1ccc(OC2CCC2)c(OC2CNC2)c1 [Example 34, 3-(4-Cyclobutoxy-2′-methyl-biphenyl-3-yloxy)-azetidine]	667
COc1ccc(-c2ccccc2OC)cc1OC1CNC1 [Example 9, 3-(4,2′-Dimethoxy-biphenyl-3-yloxy)-azetidine]	50
COc1ccc(-c2ccc(C)c(C)c2)cc1OC1CNC1 [Example 14, 3-(4-Methoxy-3′,4′-dimethyl-biphenyl-3-yloxy)-azetidine]	250
Clc1ccccc1-c1cccc(OC2CNC2)c1 [Example 21, 3-(2′-Chloro-biphenyl-3-yloxy)-azetidine]	34.6
COc1ccc(-c2ccccc2OC(F)(F)F)cc1OC1CNC1 [Example 7, 3-(4-Methoxy-2′-trifluoromethoxy-biphenyl-3-yloxy)-azetidine]	10
COc1ccc(-c2ccccc2C)cc1C1CCNC1 (racemic) [Example 43, (±)-3-(4-Methoxy-2′-methyl-biphenyl-3-yl)-pyrrolidine]	5.46
FC(F)(F)c1ccccc1-c1cccc(OC2CNC2)c1 [Example 20, 3-(2′-Trifluoromethyl-biphenyl-3-yloxy)-azetidine]	25.5
Clc1ccc(-c2ccccc2Cl)cc1OC1CNC1 [Example 24, 3-(4,2′-Dichloro-biphenyl-3-yloxy)-azetidine trifluoroacetate]	8.89
COc1ccc(-c2cccc(C)c2)cc1OC1CNC1 [Example 13, 3-(4-Methoxy-3′-methyl-biphenyl-3-yloxy)-azetidine]	1000
COc1ccc(-c2c(C)cccc2C)cc1OC1CNC1 [Example 6, 3-(4-Methoxy-2′,6′-dimethyl-biphenyl-3-yloxy)-azetidine trifluoroacetate]	8.2
Cc1ccccc1-c1ccc(C#N)c(OC2CNC2)c1 [Example 30, 3-(Azetidin-3-yloxy)-2′-methyl-biphenyl-4-carbonitrile]	508
Cc1ccccc1-c1ccc(OCC(F)(F)F)c(OC2CNC2)c1 [Example 33, 3-[2′-Methyl-4-(2,2,2-trifluoro-ethoxy)-biphenyl-3-yloxy]-azetidine]	525
COc1ccc(-c2cccc(F)c2F)cc1C1CCNC1 (racemic) [Example 45, (±)-3-(2′,3′-Difluoro-4-methoxy-biphenyl-3-yl)-pyrrolidine]	52
COc1ccc(-c2ccc(F)cc2C)cc1OC1CNC1 [Example 2, 3-(4′-Fluoro-4-methoxy-2′-methyl-biphenyl-3-yloxy)-azetidine]	21
Cc1ccc(-c2ccc(Cl)cc2OC2CNC2)cc1C [Example 42, 3-(4-Chloro-3′,4′-dimethyl-biphenyl-2-yloxy)-azetidine]	210
CCN(CC)C(=O)c1ccc(-c2ccccc2C(F)(F)F)cc1OC1CNC1 [Example 37, 3-(Azetidin-3-yloxy)-2′-trifluoromethyl-biphenyl-4-carboxylic acid diethylamide]	2270

SMILES	Ki [nM]
COc1ccc(-c2ccc(F)c(C)c2)cc1OC1CNC1 [Example 12, 3-(4′-Fluoro-4-methoxy-3′-methyl-biphenyl-3-yloxy)-azetidine]	770
COc1ccc(-c2cccc(F)c2C)cc1C1CCNC1 (racemic) [Example 44, (±)-3-(3′-Fluoro-4-methoxy-2′-methyl-biphenyl-3-yl)-pyrrolidine]	19
COc1ccc(-c2cc(C)ccc2C)cc1OC1CNC1 [Example 16, 3-(4-Methoxy-2′,5′-dimethyl-biphenyl-3-yloxy)-azetidine]	114
CCOc1ccc(-c2ccccc2C)cc1OC1CNC1 [Example 32, 3-(4-Ethoxy-2′-methyl-biphenyl-3-yloxy)-azetidine hydrochloride]	454
Cc1cccc(-c2cccc(OC3CNC3)c2)c1 [Example 22, 3-(3′-Methyl-biphenyl-3-yloxy)-azetidine]	752
COc1ccc(-c2ccc(C)cc2)cc1OC1CNC1 [Example 11, 3-(4-Methoxy-4′-methyl-biphenyl-3-yloxy)-azetidine]	760
Cc1cccc(-c2ccc(Cl)cc2OC2CNC2)c1 [Example 38, 3-(4-Chloro-3′-methyl-biphenyl-2-yloxy)-azetidine]	189
COc1ccc(-c2ccccc2)cc1OC1CNC1 [Example 15, 3-(4-Methoxy-biphenyl-3-yloxy)-azetidine]	120
COc1ccc(-c2ccccc2Cl)cc1OC1CN(C2CCC2)C1 [Example 19, 3-(2′-Chloro-4-methoxy-biphenyl-3-yloxy)-1-cyclobutyl-azetidine trifluoroacetate]	300
FC(F)(F)c1ccccc1-c1ccc(Cl)c(OC2CNC2)c1 [Example 25, 3-(4-Chloro-2′-trifluoromethyl-biphenyl-3-yloxy)-azetidine trifluoroacetate]	10.5
Cc1cccc(-c2ccc(Cl)c(OC3CNC3)c2)c1 [Example 27, 3-(4-Chloro-3′-methyl-biphenyl-3-yloxy)-azetidine trifluoroacetate]	410
Cc1ccccc1-c1cccc(OC2CNC2)c1 [Example 23, 3-(2′-Methyl-biphenyl-3-yloxy)-azetidine]	67
N#Cc1ccc(-c2ccccc2C(F)(F)F)cc1OC1CNC1 [Example 28, 3-(Azetidin-3-yloxy)-2′-trifluoromethyl-biphenyl-4-carbonitrile]	127
COc1ccc(-c2c(Cl)cccc2C(F)(F)F)cc1OC1CNC1 [Example 10, 3-(2′-Chloro-4-methoxy-6′-trifluoromethyl-biphenyl-3-yloxy)-azetidine trifluoroacetate]	112
Cc1ccccc1-c1ccc(Cl)c(OC2CNC2)c1 [Example 26, 3-(4-Chloro-2′-methyl-biphenyl-3-yloxy)-azetidine trifluoroacetate]	15.5
COc1ccc(-c2cccc(C(F)(F)F)c2)cc1C1CCNC1 (racemic) [Example 46, (±)-3-(4-Methoxy-3′-trifluoromethyl-biphenyl-3-yl)-pyrrolidine]	117
Cc1ccccc1-c1ccc(OC(C)C)c(OC2CNC2)c1 [Example 36, 3-(4-Isopropoxy-2′-methyl-biphenyl-3-yloxy)-azetidine]	10000
COc1ccc(-c2ccccc2Cl)cc1OC1CN(C(C)C)C1 [Example 18, 3-(2′-Chloro-4-methoxy-biphenyl-3-yloxy)-1-isopropyl-azetidine trifluoroacetate]	533

Further lines, results first:

Ki [nM]	SMILES
19.8	COc1ccc(-c2ccccc2OC(F)(F)F)cc1C1CCNC1 (racemic) [Example 48, (±)-3-(4-Methoxy-2′-trifluoromethoxy-biphenyl-3-yl)-pyrrolidine]
150	COc1ccc(-c2ccccc2)cc1C1CCN(C)C1 (racemic) [Example 50, (±)-3-(4-Methoxy-biphenyl-3-yl)-1-methyl-pyrrolidine]
120	Cc1ccc(-c2ccc(Cl)cc2C2CCNC2)cc1C (racemic) [Example 67, (±)-3-(4-Chloro-3′,4′-dimethyl-biphenyl-2-yl)-pyrrolidine]
1480	COc1ccc(-c2ccccc2)cc1OC1CCNCC1 [Example 68, 4-(4-Methoxy-biphenyl-3-yloxy)-piperidine]
120	c1ccc(-c2ccccc2C2CCNC2)cc1 (racemic) [Example 51, (±)-3-Biphenyl-2-yl-pyrrolidine]
430	Cc1ccc(-c2ccccc2C2CCN(C)C2)cc1 (racemic) [Example 55, (±)-1-Methyl-3-(4′-methyl-biphenyl-2-yl)-pyrrolidine]
120	Cc1ccc(-c2ccccc2C2CCNC2)cc1 (racemic) [Example 54, (±)-3-(4′-Methyl-biphenyl-2-yl)-pyrrolidine]
380	Cc1cc(-c2ccc(Cl)cc2C2CCNC2)ccc1F (racemic) [Example 66, (±)-3-(4-Chloro-4′-fluoro-3′-methyl-biphenyl-2-yl)-pyrrolidine]
7.98	COc1ccc(-c2ccccc2C(F)(F)F)cc1C1CCNC1 (racemic) [Example 47, (±)-3-(4-Methoxy-2′-trifluoromethyl-biphenyl-3-yl)-pyrrolidine]
210	Cc1ccccc1-c1ccccc1C1CCNC1 (racemic) [Example 59, (±)-3-(2′-Methyl-biphenyl-2-yl)-pyrrolidine]
1700	COc1ccc(C)cc1-c1ccccc1C1CCNC1 (racemic) [Example 63, (±)-3-(2′-Methoxy-5′-methyl-biphenyl-2-yl)-pyrrolidine]
59	COc1ccc(-c2ccccc2C(F)(F)F)cc1OC1CCNCC1 [Example 69, 4-(4-Methoxy-2′-trifluoromethyl-biphenyl-3-yloxy)-piperidine]
130	Clc1cccc(-c2ccc(Cl)cc2C2CCNC2)c1 (racemic) [Example 65, (±)-3-(4,3′-Dichloro-biphenyl-2-yl)-pyrrolidine]
330	Cc1ccccc1-c1ccccc1C1CCN(C)C1 (racemic) [Example 60, (±)-1-Methyl-3-(2′-methyl-biphenyl-2-yl)-pyrrolidine]
300	COc1ccccc1-c1ccccc1C1CCNC1 (racemic) [Example 61, (±)-3-(2′-Methoxy-biphenyl-2-yl)-pyrrolidine]
55.9	Cc1ccc(-c2ccccc2C2CCNC2)cc1C (racemic) [Example 57, (±)-3-(3′,4′-Dimethyl-biphenyl-2-yl)-pyrrolidine]
730	COc1ccccc1-c1ccccc1C1CCN(C)C1 (racemic) [Example 62, (±)-3-(2′-Methoxy-biphenyl-2-yl)-1-methyl-pyrrolidine]
